# Experimental data reported in patent publication US20220184222A1, “BICYCLE TOXIN CONJUGATES AND USES THEREOF” (BicycleTx Limited, priority 2019, published 2022).
# Starred links: 1 amine or outer side, 2 acyl side, 3 side chain; linkers in the order of their positions; H or OH if unused. Non-standard residues stand in square brackets, D forms with d. Residues, ends and D or L forms follow the SMILES beside them. *: point of attachment. Dolaproine = CO[C@@H]([C@@H]1CCCN1)[C@@H](C)C(=O)O; Dil = CC[C@H](C)[C@H](NC)[C@@H](CC(=O)O)OC; PABC = O=C(OCc1ccc(N[*:1])cc1)[*:2]; X1 = O=C(CCCC(=O)*)ON1C(=O)CCC1=O; X2 = C[C@@H](N*)[C@@H](O)c1ccccc1; Cit = NC(=O)NCCC[C@H](N)C(=O)O; NMeV = CN[C@H](C(=O)O)C(C)C
# Tests used:
# CTG-2539 = test: Champions TumorGraft NSCLC PDX efficacy, model CTG-2539; assay type: in vivo, Mus musculus
# Protocol: Mice were implanted subcutaneously into the left flank with tumor fragments from one of the various models. […] Effects on tumor growth were evaluated by measuring percent tumor growth inhibition (% TGI), and the number of complete responders (CR), partial responders (PR), and tumor-free survivors (TFS). Tolerability was assessed by body weight loss, lethality, and clinical signs of adverse treatment-related side effects. Tumor volumes and body weights were measured twice a week.
# […] These dosing solutions were stored at −80° C. in the dark. On each day of dosing, a frozen aliquot of each test agent was thawed, stored at 2-8° C. and used for dosing.
# The animals used in this study are described below: • Species: Mus musculus • Strain: Athymic Nude-Foxn1^nu (immune-compromised) • Source: Envigo (Indianapolis, Ind., USA) • Number of animals per group: 2 • Age and sex: At least 6-8 weeks of age at start of dosing, female • Weight: At least 18 grams at start of dosing • Acclimation period: 3 days
# Stock mice were implanted with tumor cells from Champions TumorGraft® models CTG-0160, CTG-0170, CTG-0178, CTG-0192, CTG-0363, CTG-0808, CTG-0838, CTG-0848, CTG-1212, CTG-1502, CTG-1535, CTG-2011, CTG-2393, CTG-2539 or CTG-2540. After the tumors reached 1000-1500 mm^3, they were harvested and the tumor fragments (approximately 5×5×5 mm^3) were implanted SC in the left flank of the female study mice. Each animal was implanted with a specific passage lot and documented. Tumor growth was monitored twice a week using digital calipers and the tumor volume (TV) was calculated using the formula (0.52×[length×width^2]). When the TV reached an average volume of 150-300 mm^3, animals were matched by tumor size and assigned into Vehicle Control and treatment groups (n=2/group) and dosing was initiated on Day 0. After the initiation of dosing on Day 0, animals were weighed twice per week using a digital scale and TV was measured twice per week and also on the final day of study. The study was completed when the mean tumor volume of Vehicle Control reached 1500 mm^3 or up to Day 60, whichever occurred first.
# Beginning on Day 0, animals were observed daily and weighed twice weekly using a digital scale; data including individual and mean gram weights, mean percent weight change versus Day 0 (% vD0) were recorded for each group and % vD0 plotted at study completion. […] Treatment resulting in a mean % vD0>20% and/or >10% mortality was considered above the maximum tolerated dose. Maximum mean % vD0 (weight nadir) for each treatment group was reported at study completion.
# Inhibition of tumor growth was determined by calculating the percent TGI (100%×[1−(final MTV−initial MTV of a treated group)/(final MTV−initial MTV of the control group)]). Treatment started on Day 0.
# Additional endpoints used to evaluate efficacy were: the number of complete responders (CR), partial responders (PR), and tumor-free survivors (TFS). PRs were considered exclusive of CRs, as were TFS.
# Statistical analyses of anti-tumor efficacy were performed using one-way ANOVA followed by Dunnett's multiple comparisons test (GraphPad Prism version 8.2.0). Significant p-values=<0.05.
# Animals were dosed according to the schedule on Table 7-1. The Vehicle Control reached endpoint on Day 21 and the BT5528 group reached endpoint on Day 18. The study was terminated on Day 25.
# PC-3 xenograft = test: In vivo efficacy in PC-3 xenograft, male Balb/c nude mice (Example 3); parameters: species or system Mus Musculus
# Protocol: The objective of the research is to evaluate the in vivo anti-tumor efficacy of test articles in treatment of PC-3 xenograft in Balb/c nude mice.
# The tumor cells were maintained in F-12K medium supplemented with 10% heat inactivated fetal bovine serum at 37° C. in an atmosphere of 5% CO2 in air. The tumor cells were routinely subcultured twice weekly. The cells growing in an exponential growth phase were harvested and counted for tumor inoculation.
# Each mouse was inoculated subcutaneously at the right flank with PC-3 tumor cells (10×10^6) in 0.2 ml of PBS for tumor development. 52 animals were randomized when the average tumor volume reached 454 mm^3. The test article administration and the animal numbers in each group were shown in the experimental design table.
# The major endpoint was to see if the tumor growth could be delayed or mice could be cured. Tumor volume was measured three times weekly in two dimensions using a caliper, and the volume was expressed in mm3 using the formula: V=0.5 a×b^2 where a and b are the long and short diameters of the tumor, respectively. The tumor size was then used for calculations of T/C value. The T/C value (in percent) is an indication of antitumor effectiveness; T and C are the mean volumes of the treated and control groups, respectively, on a given day.
# TGI was calculated for each group using the formula: TGI (%)=[1−(Ti−T0)/(Vi−V0)]×100; Ti is the average tumor volume of a treatment group on a given day, T0 is the average tumor volume of the treatment group on the day of treatment start, Vi is the average tumor volume of the vehicle control group on the same day with Ti, and V0 is the average tumor volume of the vehicle group on the day of treatment start.
# Tumor growth inhibition rate for test articles in the PC-3 xenograft model was calculated based on tumor volume measurements at day 20 after the start of the treatment.
# [1] = CTG-2539, 3 mg/kg IV Q7Dx3, Day 0-25
smiles,measurement,setting,value
CC[C@H](C)[C@@H]([C@@H](CC(=O)N1CCC[C@H]1[C@H](OC)[C@@H](C)C(=O)N[C@H](C)[C@@H](O)c1ccccc1)OC)N(C)C(=O)[C@@H](NC(=O)[C@H](C(C)C)N(C)C(=O)OCc1ccc(NC(=O)[C@H](CCCNC(N)=O)NC(=O)[C@@H](NC(=O)CCCC(=O)ON2C(=O)CCC2=O)C(C)C)cc1)C(C)C [BT5528] (X1-V[Cit][PABC][NMeV]V[Dil][Dolaproine]-X2),MTV (mean tumor volume),"CTG-2539; 3 mg/kg IV Q7Dx3, Day 18",2029±594 mm^3
same,TGI,"CTG-2539; 3 mg/kg IV Q7Dx3, Day 18",−51%
same,# CR (complete responders),CTG-2539; [1],0/0/0
same,# PR (partial responders),CTG-2539; [1],0/0/0
same,# TFS (tumor-free survivors),CTG-2539; [1],0/0/0
same,% TGI,"CTG-2539; CTG-2539, 3 mg/kg IV Q7Dx3, Day 18",−51%
same,Day 18 Tumor Volume Mean TV ± SEM,"CTG-2539; CTG-2539, BT5528 3 mg/kg IV Q7Dx3, Day 18, n=2",2029 ± 594 mm^3
same,tumor relapse after ceasing the treatment,PC-3 xenograft; 0.5 mg/kg qw or 0.5 mg/kg q2w,obvious tumor relapse after ceasing the treatment
same,tumor relapse after ceasing the treatment,PC-3 xenograft; 1.5 mg/kg q2w,tumor relapse after ceasing the treatment
same,tumor relapse after ceasing the treatment,PC-3 xenograft; 1.5 mg/kg qw,didn't show any tumor relapse until day 48
same,further treatment after relapse,PC-3 xenograft; 1.5 mg/kg qw from day 52 in mice first treated with 0.5 mg/kg qw or q2w,worked well on the tumor regression
same,further dosing after relapse,PC-3 xenograft; 1.5 mg/kg qw from day 52 in mice first treated with 1.5 mg/kg q2w,didn't work on complete tumor regression
same,T/C,"PC-3 xenograft; 0.167 mpk i.v. qw, day 20",50.2%
same,TGI,"PC-3 xenograft; 0.167 mpk i.v. qw, day 20",61.4%
same,Tumor volume,"PC-3 xenograft; 0.167 mpk i.v. qw, day 20",1188 mm^3
same,T/C,"PC-3 xenograft; 0.5 mpk i.v. q2w, day 20",22.4%
same,TGI,"PC-3 xenograft; 0.5 mpk i.v. q2w, day 20",96.0%
same,Tumor volume,"PC-3 xenograft; 0.5 mpk i.v. q2w, day 20",530 mm^3
same,Tumor volume,"PC-3 xenograft; 0.5 mpk i.v. qw, day 0",451 mm^3
same,Tumor volume,"PC-3 xenograft; 0.5 mpk i.v. qw, day 2",622 mm^3
same,Tumor volume,"PC-3 xenograft; 0.5 mpk i.v. qw, day 4",519 mm^3
same,Tumor volume,"PC-3 xenograft; 0.5 mpk i.v. qw, day 6",460 mm^3
same,Tumor volume,"PC-3 xenograft; 0.5 mpk i.v. qw, day 8",398 mm^3
same,Tumor volume,"PC-3 xenograft; 0.5 mpk i.v. qw, day 10",329 mm^3
same,Tumor volume,"PC-3 xenograft; 0.5 mpk i.v. qw, day 13",260 mm^3
same,Tumor volume,"PC-3 xenograft; 0.5 mpk i.v. qw, day 15",249 mm^3
same,Tumor volume,"PC-3 xenograft; 0.5 mpk i.v. qw, day 17",231 mm^3
same,T/C,"PC-3 xenograft; 0.5 mpk i.v. qw, day 20",9.9%
same,TGI,"PC-3 xenograft; 0.5 mpk i.v. qw, day 20",111.4%
same,Tumor volume,"PC-3 xenograft; 0.5 mpk i.v. qw, day 20",234 mm^3
same,T/C,"PC-3 xenograft; 1.5 mpk i.v. q2w, day 20",5.4%
same,TGI,"PC-3 xenograft; 1.5 mpk i.v. q2w, day 20",117.0%
same,Tumor volume,"PC-3 xenograft; 1.5 mpk i.v. q2w, day 20",128 mm^3
same,Tumor volume,"PC-3 xenograft; 1.5 mpk i.v. qw, day 0",458 mm^3
same,Tumor volume,"PC-3 xenograft; 1.5 mpk i.v. qw, day 2",587 mm^3
same,Tumor volume,"PC-3 xenograft; 1.5 mpk i.v. qw, day 4",494 mm^3
same,Tumor volume,"PC-3 xenograft; 1.5 mpk i.v. qw, day 6",363 mm^3
same,Tumor volume,"PC-3 xenograft; 1.5 mpk i.v. qw, day 8",283 mm^3
same,Tumor volume,"PC-3 xenograft; 1.5 mpk i.v. qw, day 10",237 mm^3
same,Tumor volume,"PC-3 xenograft; 1.5 mpk i.v. qw, day 17",155 mm^3
same,T/C,"PC-3 xenograft; 1.5 mpk i.v. qw, day 20",5.5%
same,TGI,"PC-3 xenograft; 1.5 mpk i.v. qw, day 20",117.2%
same,Tumor volume,"PC-3 xenograft; 1.5 mpk i.v. qw, day 20",131 mm^3
same,treatment of relapsed Docetaxel-pretreated mice,PC-3 xenograft; BT5528 1.5 mg/kg qw from day 42,worked well on tumor regression
same,measurable tumor regression by day after dosing,PC-3 xenograft; PC-3 xenograft,≤ 4 days
same,efficacy with intermittent dosing,PC-3 xenograft; dosing every 2 weeks,efficacious with intermittent dosing
